Assay [1] has as its target T1, Cbl-b (Homo sapiens, UniProt Q13191).
T1 construct: Cbl-b-HiBit KI Jurkat Cells were purchased from Promega; host or cells: Cbl-b-HiBiT knock-in Jurkat cells
The assay can be described thus: Cbl-b Degradation Method A (FACS, anti-Cbl-b antibody staining). The class given is cell-based. To be noted: Cbl-b-HiBit KI Jurkat Cells, incubated at least 20 hours; for DC50: half maximal degradation, read-out: Cbl-b Degredation Method A IC50; for Dmax: Jurkat, maximum degradation observed, read-out: Cbl-b Degredation Method A Dmax (%). The method, then:
Cbl-b Degradation Method A
Cbl-b-HiBit KI Jurkat Cells were purchased from Promega, and cell media consisted of RPMI 1640 with 10% FBS and 1% pen/strep. The cells were counted, measured for viability, and 100 μL of the cell solution was into 96 well flat bottom plates at a ratio of 290,000 cells per 100 μL. Compounds were dissolved in DMSO to make a 10 mM stock solution, which was diluted with cell media. 100 μL of the diluted compound mixture was added to the wells. The plate was incubated for at least 20 hours at 37° C. and 5% CO2. After incubation, the plate was shaken at 700-750 RMP for 15-30 minutes to ensure cells were removed from the wells. The wells were transferred to a 96-well v-bottom plate and spun for 2200 RPM for 3 minutes. The supernatant was removed, cells re-suspended in 100 μL of the fixative, and subsequently incubated at room temperature for 15 minutes. Afterwards, 150 μL of DPBS was added to each well, and the cells were centrifuged at 2500 RPM for 3 minutes. The supernatant was removed and the plate was chilled on ice for 2-3 minutes. While still on the ice, 100 μL of Perm III was added to each well, the wells mixed, and subsequently left on the ice for another 15 minutes. Afterwards, the plate was removed from the ice, 150 μL of DBPS was added to each well, and the cells centrifuged at 2700 RPM for 3 minutes. The supernatant was removed, and an additional 200 μL of was DPBS was added to each well, followed by centrifuging at 2700 RPM for 3 minutes, after which the supernatant was removed. The anti-Cbl-b antibody was diluted 1:200 in 1× Perm Wash buffer and 50 μL of the antibody mixture was added to each well and mixed. After addition, the plate was incubated for 35-45 minutes at room temperature. After incubation, 200 μL of DPBS was added to each wells, and the plate centrifuged at 2700 RPM for 3 minutes, followed by the removal of the supernatant. The washing step was repeated by adding 200 μL of DPBS to each wells followed by centrifuge at 2700 RPM for 3 minutes and removal of the supernatant. The a-Rabbit-AF488 antibody was diluted 1:1000 in Perm Wash buffer, 50 μL of the dilution added to each well, and mixed. After mixing, the plate was incubated for 30 minutes at room temperature in the dark. Subsequently, the supernatant was removed, and 200 μL of DBPS added to the cells, which were then centrifuged at 2900 RPM for 4 minutes. The supernatant was removed, and an additional 95 μL of DBPS was added to the wells and mixed. The cells were then transferred to a round bottom polypropylene plate and analyzed using FACS with the parameters below:
The concentration of an exemplary compound that leads to half maximal degradation (DC50) as well as the maximum degradation observed (Dmax, conventionally expressed as a percentage of control) is shown below in Table 2.

The target of assay [2] is T1, Cbl-b. The assay can be described thus: Cbl-b Degradation Method B (Nano-Glo HiBiT lytic detection). The class given is cell-based. The conditions noted are these: Cbl-b-HiBit KI Jurkat Cells, incubated at least 6-24 hours; for DC50: half maximal degradation, read-out: Cbl-b Degredation Method B IC50; for Dmax: read-out: Cbl-b Degredation Method B Dmax (%). Put shortly:
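An 11-point, 3-fold compound dilution was applied for 6-24 hours to Jurkat cells carrying HiBiT-tagged endogenous Cbl-b. Lytic HiBiT luminescence quantified residual protein. Outputs are DC50 and Dmax relative to DMSO control.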
For orientation: With HiBiT, luminescence reflects the tagged protein that the partner subunit can reach.

T1 sequence (Q13191 whole entry): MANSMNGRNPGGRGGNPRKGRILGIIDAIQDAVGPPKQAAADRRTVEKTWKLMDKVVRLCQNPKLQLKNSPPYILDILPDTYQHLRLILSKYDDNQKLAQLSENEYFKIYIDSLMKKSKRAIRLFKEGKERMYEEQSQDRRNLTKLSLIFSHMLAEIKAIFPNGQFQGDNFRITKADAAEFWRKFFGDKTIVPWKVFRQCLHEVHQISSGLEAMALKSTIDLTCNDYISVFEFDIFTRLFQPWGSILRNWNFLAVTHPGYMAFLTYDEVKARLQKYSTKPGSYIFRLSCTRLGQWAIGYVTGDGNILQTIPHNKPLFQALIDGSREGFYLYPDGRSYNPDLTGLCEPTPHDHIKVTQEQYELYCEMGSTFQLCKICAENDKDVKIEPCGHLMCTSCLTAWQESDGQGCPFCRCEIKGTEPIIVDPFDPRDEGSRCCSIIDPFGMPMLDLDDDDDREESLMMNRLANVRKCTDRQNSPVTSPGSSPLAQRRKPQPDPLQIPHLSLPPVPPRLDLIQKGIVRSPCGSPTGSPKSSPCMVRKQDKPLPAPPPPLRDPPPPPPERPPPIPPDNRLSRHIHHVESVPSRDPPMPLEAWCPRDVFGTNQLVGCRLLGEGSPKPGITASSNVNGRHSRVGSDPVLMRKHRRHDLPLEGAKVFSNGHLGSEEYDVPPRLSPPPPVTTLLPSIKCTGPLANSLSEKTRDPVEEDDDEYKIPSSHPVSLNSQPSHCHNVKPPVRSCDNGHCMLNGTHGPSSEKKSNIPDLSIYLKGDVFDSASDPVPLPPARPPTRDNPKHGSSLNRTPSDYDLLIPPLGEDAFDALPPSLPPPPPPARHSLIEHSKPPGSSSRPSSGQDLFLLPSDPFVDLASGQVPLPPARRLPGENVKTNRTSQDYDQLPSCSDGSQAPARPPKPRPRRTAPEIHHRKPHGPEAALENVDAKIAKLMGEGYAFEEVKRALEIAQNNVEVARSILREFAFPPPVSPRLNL

Broadly, the Dmax is the largest share of the target that was removed. Consider `C[C@@H]1c2nc(N3CCC(O[C@H]4CC[C@H](CN5CCN(Cc6cc7c(c(C(F)(F)F)c6)CN(c6cccc(C8(Cc9nncn9C)CC(C#N)C8)c6)C7=O)CC5(C)C)CC4)CC3)ccc2C(=O)N1C1CCC(=O)NC1=O` (single isomer, unassigned) [Example 311, (1r***,3r***)-3-(3-{6-[(3,3-dimethyl-4-{[(1r**,4r**)-4-({1-[(7R*)-6-(2,6-dioxopiperidin-3-yl)-7-methyl-5-oxo-5H,6H,7H-pyrrolo[3,4-b]pyridin-2-yl]piperidin-4-yl}oxy)cyclohexyl]methyl}piperazin-1-yl)methyl]-1-oxo-4-(trifluoromethyl)-2,3-dihydro-1H-isoindol-2-yl}phenyl)-3-[(4-methyl-4H-1,2,4-triazol-3-yl)methyl]cyclobutane-1-carbonitrile], for which, at Cbl-b [1], the DC50 is 50 to 500 nM and the Dmax is 35 to 70%. The DC50 at Cbl-b [2] is below 5 nM. Also, the “Cbl-b Degredation Method B Dmax (%)” value on Cbl-b [2] (maximum degradation observed) is “C (C ≤ 35)”.

As to `Cn1cnnc1CC1(c2cccc(N3Cc4c(cc(N5CC6(CCN(CC7CCN(c8ccc9c(c8F)CN(C8CCC(=O)NC8=O)C9=O)CC7)CC6)C5)cc4C(F)(F)F)C3=O)c2)COC1` (stereo not shown) [Example 1, 3-{4-fluoro-5-[4-({2-[2-(3-{3-[(4-methyl-4H-1,2,4-triazol-3-yl)methyl]oxetan-3-yl}phenyl)-3-oxo-7-(trifluoromethyl)-2,3-dihydro-1H-isoindol-5-yl]-2,7-diazaspiro[3.5]nonan-7-yl}methyl)piperidin-1-yl]-1-oxo-2,3-dihydro-1H-isoindol-2-yl}piperidine-2,6-dione], the DC50 on Cbl-b [1] and at Cbl-b [2] was below 5 nM in each case. The greatest degradation seen (Dmax) on Cbl-b [1] and on Cbl-b [2] (maximum degradation observed) was 35 to 70% throughout.

For the compound `Cn1cnnc1CC1(c2cccc(N3Cc4c(cc(CN5CCN(C[C@H]6CC[C@H](OC7CCN(c8ccc9c(c8F)CN(C8CCC(=O)NC8=O)C9=O)CC7)CC6)CC5)cc4C(F)(F)F)C3=O)c2)COC1` (stereo partly shown) [Example 2, 3-[4-fluoro-1-oxo-5-(4-{[(1r, 4r)-4-[(4-{[2-(3-{3-[(4-methyl-4H-1,2,4-triazol-3-yl)methyl]oxetan-3-yl}phenyl)-3-oxo-7-(trifluoromethyl)-2,3-dihydro-1H-isoindol-5-yl]methyl}piperazin-1-yl)methyl]cyclohexyl]oxy}piperidin-1-yl)-2,3-dihydro-1H-isoindol-2-yl]piperidine-2,6-dione], the DC50 at Cbl-b [1] and on Cbl-b [2] was below 5 nM throughout. For the same compound, the Dmax was above 70% at Cbl-b [1] and 35 to 70% on Cbl-b [2] (maximum degradation observed).

As to `Cn1cnnc1CC1(c2cccc(N3Cc4c(cc(N5CC6(CCN(CC7CCN(c8ccc9c(c8Cl)CN(C8CCC(=O)NC8=O)C9=O)CC7)CC6)C5)cc4C(F)(F)F)C3=O)c2)COC1` (stereo not shown) [Example 4, 3-{4-chloro-5-[4-({2-[2-(3-{3-[(4-methyl-4H-1,2,4-triazol-3-yl)methyl]oxetan-3-yl}phenyl)-3-oxo-7-(trifluoromethyl)-2,3-dihydro-1H-isoindol-5-yl]-2,7-diazaspiro[3.5]nonan-7-yl}methyl)piperidin-1-yl]-1-oxo-2,3-dihydro-1H-isoindol-2-yl}piperidine-2,6-dione], the DC50 on Cbl-b [1] and at Cbl-b [2] was below 5 nM throughout. In addition, the Dmax at Cbl-b [1] and at Cbl-b [2] (maximum degradation observed) was 35 to 70% in each case.

For `COc1c(N2CCC(CN3CCC4(CC3)CN(c3cc5c(c(C(F)(F)F)c3)CN(c3cccc(C6(Cc7nncn7C)COC6)c3)C5=O)C4)CC2)ccc2c1CN(C1CCC(=O)NC1=O)C2=O` (stereo not shown) [Example 8, 3-{4-methoxy-5-[4-({2-[2-(3-{3-[(4-methyl-4H-1,2,4-triazol-3-yl)methyl]oxetan-3-yl}phenyl)-3-oxo-7-(trifluoromethyl)-2,3-dihydro-1H-isoindol-5-yl]-2,7-diazaspiro [3.5]nonan-7-yl}methyl)piperidin-1-yl]-1-oxo-2,3-dihydro-1H-isoindol-2-yl}piperidine-2,6-dione], the DC50 was 5 to 50 nM on Cbl-b [1] and below 5 nM on Cbl-b [2]. Further, the Dmax was above 70% at Cbl-b [1] and 35 to 70% at Cbl-b [2] (maximum degradation observed).

As to `Cn1cnnc1CC1(c2cccc(N3Cc4c(cc(CN5CC[C@H](CN6CCN(C[C@H]7CC[C@H](OC8CCN(c9ccc%10c(c9F)CN(C9CCC(=O)NC9=O)C%10=O)CC8)CC7)CC6)C5)cc4C(F)(F)F)C3=O)c2)COC1` (stereo partly drawn) [Example 10, 3-[4-fluoro-1-oxo-5-(4-{[(1r, 4r)-4-[(4-{[(3S)-1-{[2-(3-{3-[(4-methyl-4H-1,2,4-triazol-3-yl)methyl]oxetan-3-yl}phenyl)-3-oxo-7-(trifluoromethyl)-2,3-dihydro-1H-isoindol-5-yl]methyl}pyrrolidin-3-yl]methyl}piperazin-1-yl)methyl]cyclohexyl]oxy}piperidin-1-yl)-2,3-dihydro-1H-isoindol-2-yl]piperidine-2,6-dione], the DC50 on Cbl-b [1] and on Cbl-b [2] was below 5 nM each time. The Dmax at Cbl-b [1] and at Cbl-b [2] (maximum degradation observed) was above 70% throughout.

Turning to `Cn1cnnc1CC1(c2cccc(N3Cc4c(cc(N5CCC(CN6CC7(CCN(c8ccc9c(c8)C(=O)N(C8CCC(=O)NC8=O)C9=O)CC7)C6)CC5)cc4C(F)(F)F)C3=O)c2)COC1` (stereo not shown) [Example 11, 2-(2,6-dioxo-3-piperidyl)-5-[2-[[1-[2-[3-[3-[(4-methyl-1,2,4-triazol-3-yl)methyl]oxetan-3-yl]phenyl]-3-oxo-7-(trifluoromethyl)isoindolin-5-yl]-4-piperidyl]methyl]-2,7-diazaspiro[3.5]nonan-7-yl]isoindoline-1,3-dione], the DC50 at Cbl-b [1] and at Cbl-b [2] was 5 to 50 nM throughout. For the same compound, the Dmax on Cbl-b [1] and on Cbl-b [2] (maximum degradation observed) was below 35% throughout.

For the compound `Cn1cnnc1CC1(c2cccc(N3Cc4c(cc(N5CCC(COCCOc6ccc7c(c6)C(=O)N(C6CCC(=O)NC6=O)C7=O)CC5)cc4C(F)(F)F)C3=O)c2)COC1` (stereo not shown) [Example 15, 2-(2,6-dioxo-3-piperidyl)-5-[2-[[1-[2-[3-[3-[(4-methyl-1,2,4-triazol-3-yl)methyl]oxetan-3-yl]phenyl]-3-oxo-7-(trifluoromethyl)isoindolin-5-yl]-4-piperidyl]methoxy]ethoxy]isoindoline-1,3-dione], the results for the DC50 at Cbl-b [1] and on Cbl-b [2] were 50 to 500 nM and above 500 nM, respectively. Also, at Cbl-b [1], the Dmax lay within 35 to 70%.

Regarding `Cn1cnnc1CC1(c2cccc(N3Cc4c(cc(N5CCC[C@H](CN6CCC(CN7CCC(CN8CCN(c9ccc%10c(c9)C(=O)N(C9CCC(=O)NC9=O)C%10=O)CC8)CC7)CC6)C5)cc4C(F)(F)F)C3=O)c2)COC1` (stereo partly drawn) [Example 16, 2-(2,6-dioxo-3-piperidyl)-5-[4-[[1-[[1-[[(3R)-1-[2-[3-[3-[(4-methyl-1,2,4-triazol-3-yl)methyl]oxetan-3-yl]phenyl]-3-oxo-7-(trifluoromethyl)isoindolin-5-yl]-3-piperidyl]methyl]-4-piperidyl]methyl]-4-piperidyl]methyl]piperazin-1-yl]isoindoline-1,3-dione], the DC50 at Cbl-b [1] lay in the range of 50 to 500 nM; at Cbl-b [2] it was 5 to 50 nM. For the same compound, the values for the Dmax on Cbl-b [1] and on Cbl-b [2] (maximum degradation observed) were above 70% and below 35%, respectively.

Take `Cn1cnnc1CC1(c2cccc(N3Cc4c(cc(NCC[C@H]5CC[C@H](OC6CCN(c7ccc8c(c7F)CN(C7CCC(=O)NC7=O)C8=O)CC6)CC5)cc4C(F)(F)F)C3=O)c2)COC1` (stereo partly shown) [Example 17, 3-[4-fluoro-5-[4-[4-[2-[[2-[3-[3-[(4-methyl-1,2,4-triazol-3-yl)methyl]oxetan-3-yl]phenyl]-3-oxo-7-(trifluoromethyl)isoindolin-5-yl]amino]ethyl]cyclohexoxy]-1-piperidyl]-1-oxo-isoindolin-2-yl]piperidine-2,6-dione]: the DC50 on Cbl-b [1] and on Cbl-b [2] was above 500 nM in each case.
